The target in this assay is NaV1.5 (Homo sapiens, UniProt Q14524). The assay is described as follows: manual whole-cell patch clamp in CHL cells stably expressing SCN5A. It counts as cell-based. (In general: The patch-clamp technique gives a direct electrical read-out from membranes.)

The structures appear in SMILES notation.

Sequence of NaV1.5 (Q14524 whole entry): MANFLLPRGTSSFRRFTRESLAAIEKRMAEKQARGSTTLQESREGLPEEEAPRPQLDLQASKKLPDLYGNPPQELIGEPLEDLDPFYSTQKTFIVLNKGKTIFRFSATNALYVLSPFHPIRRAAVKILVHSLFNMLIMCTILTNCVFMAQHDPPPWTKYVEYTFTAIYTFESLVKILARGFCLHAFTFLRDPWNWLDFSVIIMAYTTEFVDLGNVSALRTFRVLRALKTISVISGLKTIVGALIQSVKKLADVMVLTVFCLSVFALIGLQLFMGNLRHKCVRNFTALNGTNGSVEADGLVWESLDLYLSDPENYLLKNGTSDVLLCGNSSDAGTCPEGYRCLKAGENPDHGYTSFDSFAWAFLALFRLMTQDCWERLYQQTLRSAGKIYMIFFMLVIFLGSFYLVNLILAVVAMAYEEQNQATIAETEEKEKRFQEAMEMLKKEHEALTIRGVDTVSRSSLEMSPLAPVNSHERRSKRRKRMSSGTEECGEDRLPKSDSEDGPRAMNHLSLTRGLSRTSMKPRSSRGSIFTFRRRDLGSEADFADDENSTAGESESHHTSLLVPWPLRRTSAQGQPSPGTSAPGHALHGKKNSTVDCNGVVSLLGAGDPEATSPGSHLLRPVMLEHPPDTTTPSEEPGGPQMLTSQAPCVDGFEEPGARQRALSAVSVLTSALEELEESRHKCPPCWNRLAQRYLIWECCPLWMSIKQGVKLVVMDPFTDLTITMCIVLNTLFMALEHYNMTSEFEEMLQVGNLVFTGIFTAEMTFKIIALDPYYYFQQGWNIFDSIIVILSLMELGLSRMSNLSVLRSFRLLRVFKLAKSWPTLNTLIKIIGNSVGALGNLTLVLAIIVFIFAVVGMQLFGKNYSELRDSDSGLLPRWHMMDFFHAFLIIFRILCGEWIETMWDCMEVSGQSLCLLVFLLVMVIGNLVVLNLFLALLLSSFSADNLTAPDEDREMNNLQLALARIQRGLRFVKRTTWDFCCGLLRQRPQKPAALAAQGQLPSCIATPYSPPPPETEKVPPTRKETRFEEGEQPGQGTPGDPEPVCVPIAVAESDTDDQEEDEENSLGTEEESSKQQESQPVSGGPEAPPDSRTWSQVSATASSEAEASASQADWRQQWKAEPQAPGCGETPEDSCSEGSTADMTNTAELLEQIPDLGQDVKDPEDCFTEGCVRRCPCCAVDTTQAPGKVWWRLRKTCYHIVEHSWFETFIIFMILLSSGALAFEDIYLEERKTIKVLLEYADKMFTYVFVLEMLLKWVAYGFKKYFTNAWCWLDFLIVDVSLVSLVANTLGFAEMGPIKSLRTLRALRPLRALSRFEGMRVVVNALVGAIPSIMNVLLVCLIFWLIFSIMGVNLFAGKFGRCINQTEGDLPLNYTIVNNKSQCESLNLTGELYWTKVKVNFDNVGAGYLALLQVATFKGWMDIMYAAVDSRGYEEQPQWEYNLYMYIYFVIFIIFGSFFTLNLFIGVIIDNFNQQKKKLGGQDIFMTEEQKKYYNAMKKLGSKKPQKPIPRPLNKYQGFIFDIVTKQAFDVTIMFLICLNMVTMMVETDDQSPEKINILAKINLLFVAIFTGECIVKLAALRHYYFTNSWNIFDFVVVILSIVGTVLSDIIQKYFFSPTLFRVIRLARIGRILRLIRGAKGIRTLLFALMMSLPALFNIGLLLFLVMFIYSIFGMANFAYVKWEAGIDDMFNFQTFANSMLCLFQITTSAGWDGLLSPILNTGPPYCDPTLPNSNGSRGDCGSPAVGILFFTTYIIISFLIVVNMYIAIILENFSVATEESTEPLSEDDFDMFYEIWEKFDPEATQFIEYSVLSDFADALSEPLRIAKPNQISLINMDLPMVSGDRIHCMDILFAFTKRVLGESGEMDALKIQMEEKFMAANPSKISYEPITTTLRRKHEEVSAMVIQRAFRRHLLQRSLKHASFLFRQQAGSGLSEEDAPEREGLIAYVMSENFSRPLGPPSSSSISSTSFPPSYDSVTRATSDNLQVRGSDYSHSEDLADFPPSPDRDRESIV

The IC50 is the midpoint of a concentration-inhibition curve. Low readings indicate greater potency in that assay, high ones weaker potency in that assay. In turn, `CCCCCCCCCCCC(=O)O` [LA, lauric acid] registered an IC50 of 27.4 ± 12.8 µM.

For the origin of these results see publication PMC11727701 (Drug Design, Development and Therapy, 2025).
